In the supplement of paper PMC9663587:

Key:
Luminespib/NVP-AUY922 = compound: CCNC(=O)c1noc(-c2cc(C(C)C)c(O)cc2O)c1-c1ccc(CN2CCOCC2)cc1 [Luminespib/NVP-AUY922]
[1] = compound: CCc1cnn2c(NCc3ccc[n+]([O-])c3)cc(N3CCCC[C@H]3CCO)nc12
ABT-737 = compound: CN(C)CC[C@H](CSc1ccccc1)Nc1ccc(S(=O)(=O)NC(=O)c2ccc(N3CCN(Cc4ccccc4-c4ccc(Cl)cc4)CC3)cc2)cc1[N+](=O)[O-] [ABT-737]
Alpelisib/BYL719 = compound: Cc1nc(NC(=O)N2CCC[C@H]2C(N)=O)sc1-c1ccnc(C(C)(C)C(F)(F)F)c1 [Alpelisib/BYL719]
[2] = compound: Cc1nn(C)c(COc2ccc(N3CCN(S(=O)(=O)N(C)C)CC3)cc2)c1-c1cccc2c(CCCOc3cccc4ccccc34)c(C(=O)O)n(CCN3CCOCC3)c12
Olaparib/AZD2281 = compound: O=C(c1cc(Cc2n[nH]c(=O)c3ccccc23)ccc1F)N1CCN(C(=O)C2CC2)CC1 [Olaparib/AZD2281]
Buparlisib/NVP-BKM120 = compound: Nc1cc(C(F)(F)F)c(-c2cc(N3CCOCC3)nc(N3CCOCC3)n2)cn1 [Buparlisib/NVP-BKM120]
Tivantinib/ARQ197 = compound: O=C1NC(=O)[C@@H](c2cn3c4c(cccc24)CCC3)[C@@H]1c1c[nH]c2ccccc12 [Tivantinib/ARQ197]
Torin2 = compound: C1=CC(=CC(=C1)N2C(=O)C=CC3=CN=C4C=CC(=CC4=C32)C5=CN=C(C=C5)N)C(F)(F)F [Torin2]
Paclitaxel = compound: CC(=O)O[C@H]1C(=O)[C@@]2(C)[C@H]([C@H](OC(=O)c3ccccc3)[C@]3(O)C[C@H](OC(=O)[C@H](O)[C@@H](NC(=O)c4ccccc4)c4ccccc4)C(C)=C1C3(C)C)[C@]1(OC(C)=O)CO[C@@H]1C[C@@H]2O [Paclitaxel]
Cabozantinib = compound: COc1cc2nccc(Oc3ccc(NC(=O)C4(C(=O)Nc5ccc(F)cc5)CC4)cc3)c2cc1OC [Cabozantinib]
AZD7762 = compound: NC(=O)Nc1cc(-c2cccc(F)c2)sc1C(=O)N[C@H]1CCCNC1 [AZD7762]
Saracatinib/AZD0530 = compound: CN1CCN(CCOc2cc(OC3CCOCC3)c3c(Nc4c(Cl)ccc5c4OCO5)ncnc3c2)CC1 [Saracatinib/AZD0530]
[3] = compound: CCN1CCN(Cc2ccc(Nc3ncc(F)c(-c4cc(F)c5nc(C)n(C(C)C)c5c4)n3)nc2)CC1
Cediranib/AZD2171 = compound: COc1cc2c(Oc3ccc4[nH]c(C)cc4c3F)ncnc2cc1OCCCN1CCCC1 [Cediranib/AZD2171]
Pictilisib/GDC0941 = compound: CS(=O)(=O)N1CCN(Cc2cc3nc(-c4cccc5[nH]ncc45)nc(N4CCOCC4)c3s2)CC1 [Pictilisib/GDC0941]
[4] = compound: CCC1=CN=CN=C1N2CCN(CC2)CC3=NC4=C(N3)C=C(C=C4)C(F)(F)F
TGX221 = compound: CC1=CN2C(=O)C=C(N=C2C(=C1)C(C)NC3=CC=CC=C3)N4CCOCC4 [TGX221]
Ipatasertib/GDC0068 = compound: CC(C)NC[C@@H](C(=O)N1CCN(c2ncnc3c2[C@H](C)C[C@H]3O)CC1)c1ccc(Cl)cc1 [Ipatasertib/GDC0068]
BVD523 = compound: CC(C)Nc1cc(-c2c[nH]c(C(=O)N[C@H](CO)c3cccc(Cl)c3)c2)c(Cl)cn1 [BVD523]
AZD1775 = compound: C=CCn1c(=O)c2cnc(Nc3ccc(N4CCN(C)CC4)cc3)nc2n1-c1cccc(C(C)(C)O)n1 [AZD1775]
[5] = compound: CNc1nc(-c2ccc3c(N)n[nH]c3c2)cc(N2C[C@@H](C(=O)NC3CCCCC3)CC[C@H]2C)n1
THZ-P1-2 = compound: CN(C)C/C=C/C(=O)NC1=CC=C(C=C1)C(=O)NC2=CC=CC(=C2)NC3=NC=NC(=C3)C4=CNC5=CC=CC=C54 [THZ-P1-2]
[6] = compound: CCCCOc1c(C(=O)c2c(F)cc(C)cc2F)c[nH]c2nncc1-2
SHP099 = compound: CC1(CCN(CC1)C2=CN=C(C(=N2)N)C3=C(C(=CC=C3)Cl)Cl)N [SHP099]
THZ1 = compound: CN(C)C/C=C/C(=O)Nc1ccc(C(=O)Nc2cccc(Nc3ncc(Cl)c(-c4c[nH]c5ccccc45)n3)c2)cc1 [THZ1]
AZD5363 = compound: NC1(C(=O)N[C@@H](CCO)c2ccc(Cl)cc2)CCN(c2nc[nH]c3nccc2-3)CC1 [AZD5363]
senexin b = compound: CN1CCN(C(=O)c2ccc3cc(CCNc4ncnc5ccc(C#N)cc45)ccc3c2)CC1 [senexin b]
AZD6738 = compound: C[C@@H]1COCCN1c1cc(C2([S@](C)(=N)=O)CC2)nc(-c2cc[nH]c3nccc2-3)n1 [AZD6738]
Flavopiridol = compound: CN1CC[C@H](c2c(O)cc(O)c3c(=O)cc(-c4ccccc4Cl)oc23)[C@H](O)C1 [Flavopiridol]
[7] = compound: COc1ccc2c(c1)[C@]1(C[C@H]1c1ccc3c(/C=C/c4ccc(CN5C[C@@H](C)O[C@@H](C)C5)cc4)n[nH]c3c1)C(=O)N2
R0-3306 = compound: C1=CC2=C(C=CC(=C2)C=C3C(=O)NC(=NCC4=CC=CS4)S3)N=C1 [R0-3306]
LEE011/Ribociclib = compound: CN(C)C(=O)c1cc2cnc(Nc3ccc(N4CCNCC4)cn3)nc2n1C1CCCC1 [LEE011/Ribociclib]
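Note: breast cancer and non-malignant breast epithelial cell lines, Deep Dye Drop or Dye Drop imaging, nine half-log doses, GR normalized to time-zero plates and DMSO-only controls.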

Cell Line	GR50, 72 h (Luminespib/NVP-AUY922) [µM]	GR50, 72 h [1] [µM]	GR50, 72 h (ABT-737) [µM]	GR50, 72 h (Alpelisib/BYL719) [µM]	GR50, 72 h [2] [µM]	GR50, 72 h (Olaparib/AZD2281) [µM]	GR50, 72 h (Buparlisib/NVP-BKM120) [µM]	GR50, 72 h (Tivantinib/ARQ197) [µM]	GR50, 72 h (Torin2) [µM]	GR50, 72 h (Paclitaxel) [µM]	GR50, 72 h (Cabozantinib) [µM]	GR50, 72 h (AZD7762) [µM]	GR50, 72 h (Saracatinib/AZD0530) [µM]	GR50, 72 h [3] [µM]	GR50, 72 h (Cediranib/AZD2171) [µM]	GR50, 72 h (Pictilisib/GDC0941) [µM]	GR50, 72 h [4] [µM]	GR50, 72 h (TGX221) [µM]	GR50, 72 h (Ipatasertib/GDC0068) [µM]	GR50, 72 h (BVD523) [µM]	GR50, 72 h (AZD1775) [µM]	GR50, 72 h [5] [µM]	GR50, 72 h (THZ-P1-2) [µM]	GR50, 72 h [6] [µM]	GR50, 72 h (SHP099) [µM]	GR50, 72 h (THZ1) [µM]	GR50, 72 h (AZD5363) [µM]	GR50, 72 h (senexin b) [µM]	GR50, 72 h (AZD6738) [µM]	GR50, 72 h (Flavopiridol) [µM]	GR50, 72 h [7] [µM]	GR50, 72 h (R0-3306) [µM]	GR50, 72 h (LEE011/Ribociclib) [µM]
HCC1428	0.00286	0.0171	4	> 10	> 10	0.553	0.692	0.252	0.0128	0.00862	> 10	0.4	> 10	0.00979	3.17	5.87	> 10	> 10	> 10	–	–	–	–	–	–	–	–	–	–	–	–	–	–
MDAMB175VII	0.00398	0.0118	4.58	0.154	> 10	9.32	0.102	0.267	0.0022	0.00295	7.74	0.0769	0.0646	0.00292	4.54	0.345	1.34	> 10	0.22	0.255	0.0486	0.0785	3.1	0.00153	2.47	0.0271	0.0495	0.387	8.53	0.0523	0.00391	–	–
SUM190PT	0.00558	0.0215	0.362	> 10	6.86	> 10	1.04	0.0433	0.00524	0.000878	6.1	0.0612	> 10	0.0206	> 10	3.1	9.17	> 10	> 10	3.33	0.0515	2.22	0.303	0.0016	> 10	0.00565	2.35	–	4.09	0.0802	0.00062	4.76	0.0246
UACC893	0.00468	0.017	9.97	0.419	> 10	> 10	0.271	0.297	0.00854	0.00216	> 10	0.299	4.54	0.00967	6.59	0.682	6.76	> 10	0.223	0.868	0.236	4.83	–	0.0897	> 10	0.0175	0.0291	> 10	9.33	0.117	0.0124	9.24	0.0051
UACC812	0.00518	0.0303	3.73	0.588	> 10	8.69	0.0515	0.175	0.00356	0.00042	5.86	0.00748	0.0189	0.00485	1.04	0.106	2.01	0.0345	1.02	1.32	3.03	0.884	3.78	< 0.001	> 10	0.691	8.81	–	5.82	0.0813	0.0127	5.09	0.0124
SUM185PE	0.00341	0.0261	0.927	0.318	> 10	> 10	0.659	0.784	0.0124	0.00463	1.71	0.0985	1.65	9.37	0.0358	0.127	3.03	> 10	6.34	> 10	4.52	> 10	5.83	> 10	> 10	0.0143	8.7	–	> 10	0.149	–	> 10	> 10
HCC1187	0.00363	0.00577	–	> 10	> 10	3.46	0.619	0.0418	0.00305	0.000215	–	0.0508	0.258	–	–	0.571	> 10	–	–	> 10	0.0228	> 10	–	–	> 10	0.0149	–	> 10	1.21	0.237	0.00763	–	> 10
MDAMB157	0.00418	0.0177	6.41	9.77	> 10	5.39	1.28	0.777	0.0344	0.00205	2.78	0.0154	5.23	1.8	0.825	2.05	3.78	> 10	> 10	–	–	–	–	–	–	–	–	–	–	–	–	–	–
